Where a name gives a salt, the structure may show the parent alone.
What was measured:
Bcl-2 protein = target: T1, Bcl-2 protein (histag-Bcl-2, UniProtKB P10415) (Homo sapiens, UniProt P10415); experiment: Inhibition of Bcl-2 by the fluorescence polarisation technique; assay type: binding; details: for IC50: fluorescence polarisation, 2 hours incubation, read-out: IC50 (nM) Bcl-2 FP
T1 construct: His tag
Protocol: The fluorescence polarisation tests were carried out on microplates (384 wells). The Bcl-2 protein, labelled (histag-Bcl-2 such that Bcl-2 corresponds to the UniProtKB® primary accession number: P10415), at a final concentration of 2.50×10^−8 M, is mixed with a fluorescent peptide (Fluorescein-[…]), at a final concentration of 1.00×10^−8M in a buffer solution (Hepes 10 mM, NaCl 150 mM, Tween20 0.05%, pH 7.4), in the presence or absence of increasing concentrations of test compounds. After incubation for 2 hours, the fluorescence polarisation is measured.

[1] = test system: RS4;11 leukaemia tumour line; experiment: In vitro cytotoxicity (MTT) on RS4;11; assay type: cell-based; details: RS4;11 cells, 48 hours exposure
Protocol: The cytotoxicity studies were carried out on the RS4;11 leukaemia tumour line.
The cells are distributed onto microplates and exposed to the test compounds for 48 hours.
The cell viability is then quantified by a colorimetric assay, the Microculture Tetrazolium Assay (Cancer Res., 1987, 47, 939-942).

T1 sequence (P10415 whole entry): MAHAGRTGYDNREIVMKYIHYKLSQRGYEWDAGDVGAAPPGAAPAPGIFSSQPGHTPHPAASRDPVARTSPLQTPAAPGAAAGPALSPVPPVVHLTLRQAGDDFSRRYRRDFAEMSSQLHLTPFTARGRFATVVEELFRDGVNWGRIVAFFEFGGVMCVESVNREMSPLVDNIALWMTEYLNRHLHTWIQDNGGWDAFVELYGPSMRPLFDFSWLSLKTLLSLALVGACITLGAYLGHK

| Structure (SMILES) | IC50 (Bcl-2 protein) [nM] | percentage fluorescence polarisation inhibition (partial inhibitors), Bcl-2 FP (Bcl-2 protein; @ 10 μM test compound) [% @ 10 μM] | IC50 ([1]; Homo sapiens) [nM] | IC50 [1] [nM] |
| --- | --- | --- | --- | --- |
| CN(C(=O)c1cc(-c2cc3c(cc2C(=O)N2CCc4ccccc4C2)OCO3)n2c1CNCC2)c1ccc(O)cc1 [Example 84, 6-[6-(3,4-Dihydroisoquinolin-2(1H)-ylcarbonyl)-1,3-benzodioxol-5-yl]-N-(4-hydroxyphenyl)-N-methyl-1,2,3,4-tetrahydropyrrolo[1,2-a]pyrazine-8-carboxamide] | 525 | – | – | – |
| COC1CN(CC[C@@H]2Cc3ccccc3CN2C(=O)c2cc3c(cc2-c2cc(C(=O)N(c4ccccc4)c4ccc(O)cc4)c4n2CCCC4)OCO3)C1 [Example 44, N-(4-Hydroxyphenyl)-3-(6-{[(3S)-3-[2-(3-methoxyazetidin-1-yl)ethyl]-3,4-dihydroisoquinolin-2(1H)-yl]carbonyl}-1,3-benzodioxol-5-yl)-N-phenyl-5,6,7,8-tetrahydroindolizine-1-carboxamide] | 2.9 | – | 8.56 | – |
| C[C@@H]1Cc2ccccc2CN1C(=O)c1ccccc1-c1cc(C(=O)N(c2ccncc2)c2ccc(O)cc2)c2ccccn12 [Example 68, N-(4-Hydroxyphenyl)-3-(2-{[(3R)-3-methyl-3,4-dihydroisoquinolin-2(1H)-yl]carbonyl}phenyl)-N-(pyridin-4-yl)indolizine-1-carboxamide hydrochloride] | 8.3 | – | 82.4 | – |
| C[C@@H]1Cc2ccccc2CN1C(=O)c1ccc(Cl)cc1-c1cc(C(=O)N(c2ccc(O)cc2)c2ccc3c(ccn3C)c2)c2n1CCN(C)C2 [Example 7, 6-(5-Chloro-2-{[(3R)-3-methyl-3,4-dihydroisoquinolin-2(1H)-yl]-carbonyl}phenyl]-N-(4-hydroxyphenyl)-2-methyl-N-(1-methyl-1H-indol-5-yl)-1,2,3,4-tetrahydropyrrolo[1,2-a]pyrazine-8-carboxamide] | 46.4 | – | 108 | – |
| Cn1ncc2cc(N(C(=O)c3cc(-c4cc5c(cc4C(=O)N4Cc6ccccc6C[C@H]4CCN4CCOCC4)OCO5)n4c3CCCC4)c3ccc(O)cc3)ccc21 [Example 14, N-(4-Hydroxyphenyl)-N-(1-methyl-1H-indazol-5-yl)-3-(6-{[(3S)-3-[2-(morpholin-4-yl)ethyl]-3,4-dihydroisoquinolin-2(1H)-yl]carbonyl}-1,3-benzodioxol-5-yl)-5,6,7,8-tetrahydroindolizine-1-carboxamide hydrochloride] | 3.7 | – | 7.6 | – |
| CCN(C(=O)c1cc(-c2cc3c(cc2C(=O)N2Cc4ccccc4C[C@@H]2C)OCO3)n2c1CNCC2)c1ccc(O)cc1 [Example 77, N-Ethyl-N-(4-hydroxyphenyl)-6-(6-{[(3S)-3-methyl-3,4-dihydroiso-quinolin-2(1H)-yl]carbonyl}-1,3-benzodioxol-5-yl)-1,2,3,4-tetrahydropyrrolo[1,2-a]-pyrazine-8-carboxamide] | – | 25.1 | – | 1880 |
| C[C@@H]1Cc2ccccc2CN1C(=O)c1ccccc1-c1cc(C(=O)N(c2ccc(O)cc2)c2cnc3c(ccn3C)c2)c2ccccn12 [Example 52, N-(4-Hydroxyphenyl)-3-(2-{[(3R)-3-methyl-3,4-dihydroisoquinolin-2(1H)-yl]carbonyl}phenyl)-N-(1-methyl-1H-pyrrolo[2,3-b]pyridin-5-yl)indolizine-1-carboxamide] | 7.9 | – | 20.9 | – |
| C[C@@H]1Cc2ccccc2CN1C(=O)c1ccc(F)cc1-c1cc(C(=O)N(c2ccc(O)cc2)c2cnc3c(ccn3C)c2)c2ccccn12 [Example 63, 3-(5-Fluoro-2-{[(3R)-3-methyl-3,4-dihydroisoquinolin-2(1H)-yl]-carbonyl}phenyl)-N-(4-hydroxyphenyl)-N-(1-methyl-1H-pyrrolo[2,3-b]pyridin-5-yl)indolizine-1-carboxamide] | 6.2 | – | 25.4 | – |
| C[C@@H]1Cc2ccccc2CN1C(=O)c1cc2c(cc1-c1cc(C(=O)N(c3ccc(O)cc3)c3cnn(C)c3)c3n1CCCC3)OCCO2 [Example 48, N-(4-Hydroxyphenyl)-3-(7-{[(3R)-3-methyl-3,4-dihydroisoquinolin-2(1H)-yl]carbonyl}-2,3-dihydro-1,4-benzodioxin-6-yl)-N-(1-methyl-1H-pyrazol-4-yl)-5,6,7,8-tetrahydroindolizine-1-carboxamide] | 3.6 | – | 24.7 | – |
| C[C@@H]1Cc2ccccc2CN1C(=O)c1cc2c(cc1-c1cc(C(=O)N(c3ccc(O)cc3)c3cnc4ccnn4c3)c3ccccn13)OCO2 [Example 59, N-(4-Hydroxyphenyl)-3-(6-{[(3R)-3-methyl-3,4-dihydroisoquinolin-2(1H)-yl]carbonyl}-1,3-benzodiaxol-5-yl)-N-(pyrazolo[1,5-a]pyrimidin-6-yl)indolizine-1-carboxamide] | 4 | – | 21.2 | – |
| O=C(c1cc(-c2cc3c(cc2C(=O)N2Cc4ccccc4C[C@H]2CCCN2CCOCC2)OCO3)n2c1CCCC2)N(c1ccccc1)c1ccc(O)cc1 [Example 38, N-(4-Hydroxyphenyl)-3-(6-{[(3R)-3-[3-(morpholin-4-yl)propyl]-3,4-dihydroisoquinolin-2(1H)-yl]carbonyl}-1,3-benzodioxol-5-yl)-N-phenyl-5,6,7,8-tetrahydroindolizine-1-carboxamide hydrochloride] | 4.6 | – | 9.52 | – |
| O=C(c1cc(-c2cc3c(cc2C(=O)N2Cc4ccccc4C[C@H]2CCN2CCCC(F)(F)C2)OCO3)n2c1CCCC2)N(c1ccccc1)c1ccc(O)cc1 [Example 41, 3-(6-{[(3S)-3-[2-(3,3-Difluoropiperidin-1-yl)ethyl]-3,4-dihydroiso-quinolin-2(1H)-yl]carbonyl}-1,3-benzodioxol-5-yl)-N-(4-hydroxyphenyl)-N-phenyl-5,6,7,8-tetrahydroindolizine-1-carboxamide hydrochloride] | 41.5 | – | 294 | – |
| CCN(C(=O)c1cc(-c2cc3c(cc2C(=O)N2CCc4ccccc4C2)OCO3)n2c1CNCC2)c1ccc(O)cc1 [Example 85, 6-[6-(3,4-Dihydroisoquinolin-2(1H)-ylcarbonyl)-1,3-benzodioxol-5-yl]-N-ethyl-N-(4-hydroxyphenyl)-1,2,3,4-tetrahydropyrrolo[1,2-a]pyrazine-8-carboxamide] | 243 | – | – | – |

Second part, led by results:

| IC50 (Bcl-2 protein) [nM] | percentage fluorescence polarisation inhibition (partial inhibitors), Bcl-2 FP (Bcl-2 protein; @ 10 μM test compound) [% @ 10 μM] | Structure (SMILES) | IC50 ([1]; Homo sapiens) [nM] | IC50 [1] [nM] |
| --- | --- | --- | --- | --- |
| 4.6 | – | C[C@@H]1Cc2ccccc2CN1C(=O)c1cc2c(cc1-c1cc(C(=O)N(c3ccc(O)cc3)c3cnc4c(ccn4C)c3)c3ccccn13)OCO2 [Example 33, N-(4-Hydroxyphenyl)-3-(6-{[(3R)-3-methyl-3,4-dihydroisoquinolin-2(1H)-yl]carbonyl}-1,3-benzodioxol-5-yl)-N-(1-methyl-1H-pyrrolo[2,3-b]pyridin-5-yl)indolizine-1-carboxamide hydrochloride] | 6.33 | – |
| 5.2 | – | C[C@@H]1Cc2ccccc2CN1C(=O)c1cc2c(cc1-c1cc(C(=O)N(c3ccc(O)cc3)c3cnc4c(cnn4C)c3)c3ccccn13)OCO2 [Example 70, N-(4-Hydroxyphenyl)-3-(6-{[(3R)-3-methyl-3,4-dihydroisoquinolin-2(1,H)-yl]carbonyl]-1,3-benzodioxol-5-yl)-N-(1-methyl-1H-pyrazolo[3,4-b]pyridin-5-yl)indolizine-1-carboxamide] | 6.17 | – |
| 4.6 | – | Cc1cc(N(C(=O)c2cc(-c3cc4c(cc3C(=O)N3Cc5ccccc5C[C@H]3C)OCO4)n3ccccc23)c2ccc(O)cc2)cc(C)n1 [Example 39, N-(2,6-Dimethylpyridin-4-yl)-N-(4-hydroxyphenyl)-3-(6-{[(3R)-3-methyl-3,4-dihydroisoquinolin-2(1H)-yl]carbonyl}-1,3-benzodioxol-5-yl)indolizine-1-carboxamide hydrochloride] | 26.3 | – |
| 5 | – | Cc1cnn2cc(N(C(=O)c3cc(-c4cc5c(cc4C(=O)N4Cc6ccccc6C[C@H]4C)OCO5)n4ccccc34)c3ccc(O)cc3)cnc12 [Example 86, N-(4-Hydroxyphenyl)-3-[6-[(3R)-3-methyl-3,4-dihydro-1H-isoquinoline-2-carbonyl]-1,3-benzodioxol-5-yl]-N-(3-methylpyrazolo[1,5-a]pyrimidin-6-yl)-indolizine-1-carboxamide hydrochloride] | 20.1 | – |
| 4.7 | – | COc1cc(N(C(=O)c2cc(-c3cc4c(cc3C(=O)N3Cc5ccccc5C[C@H]3C)OCO4)n3ccccc23)c2ccc(O)cc2)ccn1 [Example 56, N-(4-Hydroxyphenyl)-N-(2-methoxypyridin-4-yl)-3-(6-{[(3R)-3-methyl-3,4-dihydroisoquinolin-2(1H)-yl]carbonyl}-1,3-benzodioxol-5-yl)indolizine-1-carboxamide] | 36.7 | – |
| 6.4 | – | CC(C)c1cc(N(C(=O)c2cc(-c3cc4c(cc3C(=O)N3Cc5ccccc5C[C@H]3C)OCO4)n3ccccc23)c2ccc(O)cc2)ccn1 [Example 58, N-(4-Hydroxyphenyl)-3-(6-{[(3R)-3-methyl-3,4-dihydroisoquinolin-2(1H)-yl]carbonyl}-1,3-benzodioxol-5-yl)-N-[2-(propan-2-yl)pyridin-4-yl)indolizine-1-carboxamide hydrochloride] | 68.5 | – |
| 49 | – | C[C@@H]1Cc2ccccc2CN1C(=O)c1cc2c(cc1-c1cc(C(=O)N(c3ccc(O)cc3)c3cc[n+](C)cc3)c3ccccn13)OCO2 [Example 71, 4-[(4-Hydroxyphenyl){[3-(6-{[(3R)-3-methyl-3,4-dihydroisoquinolin-2(1H)-yl]carbonyl}-1,3-benzodioxol-5-yl)indolizin-1-yl]carbonyl}amino]-1-methyl-pyridinium chloride] | – | – |

— patent publication US10414754B2, “Indolizine compounds, a process for their preparation and pharmaceutical compositions containing them” (LES LABORATOIRES SERVIER, priority 2013, dated 2019)
